# Test results: publication PMC12385147, “Discovery of Novel 2-Substituted Aniline Pyrimidine Based Derivatives as Potent Mer/c-Met Dual Inhibitors with Improvement Bioavailability” (Biomolecules, 2025)
# Read-outs that look alike come from different tables or passages of the source.
# What was measured:
# [1] = Liver microsome stability assay; type: in vitro ADME, human
# HCT116 cells [2] = test: Transwell migration assay of HCT116 cells; type: cell-based; details: 24 h
# Method: Migration assays were conducted using Transwell® inserts (Costar, Cambridge, MA, USA) with an 8 μm pore size polycarbonate membrane. HCT116 cells (1.5 × 10^5) were seeded into the upper chamber with serum-free medium containing 0.2% BSA, while the lower chamber contained medium supplemented with 15% FBS. Compound 17c was applied at the specified concentrations to both sides of the membrane. After 24 h of incubation at 37 °C, the cells were fixed in methanol and stained with 0.1% crystal violet. Non-migrated cells on the upper surface of the membrane were removed using a cotton swab. Five random fields per well were imaged under brightfield microscopy, and the number of migrated cells was quantified using ImageJ software (1.53c). Each experiment was performed in triplicate.
# [3] = system: c-Met kinase phosphorylation; test: Western blot, c-Met phosphorylation in HCT116 cells; type: cell-based, human; details: 2.5 μM, 24 h, compared to the positive control
# Method: Western blot assay was performed according to established protocols. HCT colon cancer cells were exposed to the specified concentration of compound 17c for 24 h, after which whole cell lysates were prepared using RAPI cell lysis buffer (Beyotime Institute of Biotechnology, Shanghai, China). Primary antibodies, purchased from Beyotime Institute of Biotechnology, were diluted at a ratio of 1:2000. The protein bands on polyvinylidene fluoride membranes were visualized and analyzed using Glyco Band-Scan Software Version 4.50. The antibody details are as follows:
# Name: Phospho-c-Met (Tyr1234) antibody, Species: Rabit, Sequence: synthesized peptide derived from human c-Met around the Phosphorylation site of Tyr1234, Dilution: 1:2000, RRID number: AB_2834564, Catalogue number: AF3129, Supplier: Affinity Biosciences (Beijing, China).
# HCT116 = test: Antiproliferation CCK-8 assay, HCT116; type: cell-based; details: for IC50: Homo sapiens, HCT-116
# Method: The HepG2, MDA-MB-231, and HCT116 cell lines were derived from our own laboratory (the laboratory of our collaborator, Dr. Xiaolei Zhou, at College of Food Science and Biology in Hebei University of Science and Technology). The antiproliferative activities were assessed using the CCK-8 assay. Cell viability was measured according to the manufacturer’s instructions for the Cell Counting Kit-8 (Meilunbio, Dalian, China). In this assay, 2.5 × 10^3 cells per well were seeded into 96-well plates.
# After an initial 12 h incubation, cancer cells were exposed to varying concentrations of compound 17c for 72 h. Following CCK-8 solution addition and 2 h incubation, the absorbance at 450 nm was measured using a BioTek Synergy HTX microplate reader. Experiments included triplicate wells with three independent replicates. The IC50 values for compound 17c were derived from an analysis of the dose–response curves in GraphPad PRISM 9.5.
# HCT116 cells [4] = test: TUNEL apoptosis assay in HCT116 cells; type: cell-based; details: 48 h
# Method: Apoptosis was analyzed in a dose-dependent manner using the One Step TUNEL Apoptosis Assay Kit (Meilunbio, Dalian, China). HCT116 cells (1.5 × 10^4 cells/well) were seeded onto TC-treated glass coverslips in 24-well plates and incubated for 24 h. Following this, the cells were exposed to varying concentrations of compound 17c for 48 h. After treatment, the cells were fixed with 4% paraformaldehyde and permeabilized with 0.3% Triton-X-100. TUNEL staining was performed as per the manufacturer’s guidelines, with DAPI used for nuclear counterstaining. Fluorescent images were obtained using an Olympus microscope. The ED50 value for compound 17c was calculated using GraphPad PRISM 9.5. Each assay was performed in triplicate and repeated three times for consistency.
smiles,measurement,setting,value
"Cc1c(C(=O)Nc2ccc(Oc3ccnc(Nc4cccc(OC5CCN(C)CC5)c4)n3)cc2)c(=O)n(-c2ccccc2)n1C [compound 17c, 1,5-dimethyl-N-(4-((2-((3-((1-methylpiperidin-4-yl)oxy)phenyl)amino)pyrimidin-4-yl)oxy)phenyl)-3-oxo-2-phenyl-2,3-dihydro-1H-pyrazole-4-carboxamide]",CL (intrinsic clearance),[1]; human liver microsomes,23.6 µL/min/mg
same,microsomal CLint,"[1]; human, liver microsomes, pH 7.4, human liver microsomes, read-out: CL (intrinsic clearance)",26 µL/min/mg
same,inhibition of HCT116 cell migration,HCT116 cells [2],effectively inhibits the migration capacity
same,inhibition of c-Met kinase phosphorylation,[3],significantly inhibited the phosphorylation
same,fold improvement over cabozantinib,HCT116; HCT116 cells,17.1 fold
same,IC50,"HCT116; CCK-8, 72 h, read-out: IC50 HCT116",3790 ± 1090 nM
same,IC50,"HCT116; CCK-8, read-out: IC50 HCT116 cells",460 ± 60 nM
same,ED50 apoptosis (TUNEL-positive cells),HCT116 cells [4],2036 nM
